Assay results as given in US20250352482A1, “AMORPHOUS DOSAGE FORM CONTAINING EBSELEN” (SOUND PHARMACEUTICALS INC., priority 2022, published 2025).

Conditions: minipig, in vivo
Method: Method: The purpose of this study was to determine the pharmacokinetics of ebselen and its metabolites in male and female bama mini-pigs following twice daily (BID) oral administration of two test formulations, control ebselen capsules (Formulation 1) and ebselen-ASD/HME capsules (Formulation 2) at 200 mg/animal for 2.5 days. Three male and three female naïve Bama mini-pigs were assigned to this study. In phase 1, animals received five oral doses (BID on day 1, BID on day 2 and QD on day 3) of Formulation 1: each dose comprised control ebselen capsules (1 (Ebselen capsule, 200 mg+3 placebo capsules). After one week wash out period, the same animals received five oral doses (BID on day 1, BID on day 2 and QD on day 3) of Formulation 2: each dose comprised four Ebselen ASD/HME capsules (Formulation 2), 50 mg each. In each phase, there were 12 hour intervals between dosing. Blood samples were collected at 0.5, 1, 2, 3, 4, 6, 8 and 12 hours post the first and fifth dosing. Concentrations of ebselen, and ebselen glucuronide metabolite in plasma samples were determined by LC-MS/MS.

accumulation on systemic exposure to ebselen: No obvious accumulation
Structure (SMILES): O=c1c2ccccc2[se]n1-c1ccccc1 [ebselen, 2-Phenyl-1,2-benzoselenazol-3 (2H)-one]
